Test results from PubChem BioAssay (NCI).
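A five-concentration, 48-hour dose response in 96-well plates underlies each endpoint, interpolated linearly between surrounding concentrations. GI50 marks 50% less growth. TGI denotes the concentration required for complete inhibition of growth.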

Columns and labels:
Test in all cases: DTP human tumour cell line panel, 48 h
CCRF-CEM leukemia = test system: CCRF-CEM leukemia
SW-620 colon = test system: SW-620 colon
OVCAR-3 ovarian = test system: OVCAR-3 ovarian
OVCAR-8 ovarian = test system: OVCAR-8 ovarian
HOP-92 NSCLC = test system: HOP-92 NSCLC
SN12C renal = test system: SN12C renal
A549 NSCLC = test system: A549 NSCLC
SK-MEL-5 melanoma = test system: SK-MEL-5 melanoma
SR leukemia = test system: SR leukemia
MDA-MB-231 breast = test system: MDA-MB-231 breast

| SMILES | TGI (CCRF-CEM leukemia) [µM] | TGI (SW-620 colon) [µM] | TGI (OVCAR-3 ovarian) [µM] | TGI (OVCAR-8 ovarian) [µM] | TGI (HOP-92 NSCLC) [µM] | TGI (SN12C renal) [µM] | TGI (A549 NSCLC) [µM] | TGI (SK-MEL-5 melanoma) [µM] | TGI (SR leukemia) [µM] | GI50 (CCRF-CEM leukemia) [µM] | GI50 (SW-620 colon) [µM] | GI50 (OVCAR-3 ovarian) [µM] | GI50 (OVCAR-8 ovarian) [µM] | GI50 (HOP-92 NSCLC) [µM] | GI50 (SN12C renal) [µM] | GI50 (A549 NSCLC) [µM] | GI50 (SK-MEL-5 melanoma) [µM] | GI50 (MDA-MB-231 breast) [µM] | TGI (MDA-MB-231 breast) [µM] | GI50 (SR leukemia) [µM] |
| --- | --- | --- | --- | --- | --- | --- | --- | --- | --- | --- | --- | --- | --- | --- | --- | --- | --- | --- | --- | --- |
| CN(C)C(=S)/N=c1\ssc(=Nc2ccccc2)n1-c1ccccc1 | > 100 | > 100 | 28.3 | 68.7 | 46 | > 100 | > 100 |  |  |  |  |  |  |  |  |  |  |  |  |  |
| COc1ccc(OCC(=O)O)c2c1CCC(C)C2=O (stereo not given) | > 100 | > 100 | > 100 | > 100 |  | > 100 | > 100 | > 100 |  |  |  |  |  |  |  |  |  |  |  |  |
| Cc1cccc(C=NC23CC4CC(CC(C4)C2)C3)c1 | > 100 | > 100 | > 100 | > 100 | > 100 | > 100 | > 100 | > 100 |  |  |  |  |  |  |  |  |  |  |  |  |
| O=C(Nc1ccccc1)N1C(c2ccccc2)=N[C@@H](c2ccccc2)[C@@H]1c1ccccc1 | 60 | 35.2 | 62.8 | 45.6 | 53.3 | 47.2 | 52 | 26.8 | 40.4 |  |  |  |  |  |  |  |  |  |  |  |
| N.N.N.N.O=S([O-])[O-].[Co+3].[N-]=[N+]=[N-] | > 100 | > 100 | > 100 | > 100 | > 100 | > 100 | > 100 | > 100 |  | > 100 | > 100 | > 100 | > 100 | > 100 | > 100 | > 100 | > 100 |  |  |  |
| CCOC(=N)CC(=O)Nc1ccccc1CC | > 100 | > 100 | > 100 | > 100 |  | > 100 | > 100 | > 100 | > 100 |  |  |  |  |  |  |  |  |  |  |  |
| C[C@@H]1CC2(C[C@@H](C)C3[C@@H](CC4(C)CCCC5C6=CC(O)(CC[C@]34C)OC6=CC(=O)OC5(C)C)O2)OC1=O (stereo not given in full) |  | > 100 | > 100 |  | > 100 | > 100 | > 100 | > 100 | > 100 |  |  |  |  |  |  |  |  |  |  |  |
| Fc1ccc(-c2ncn(C3CCNCC3)c2-c2ccnc(Oc3ccc(Cl)cc3)n2)cc1 |  | 7.3 | 7.9 | 8.99 |  | 7.17 | 12.8 | 6.41 |  |  | 3.74 | 4.09 | 4.14 |  | 3.67 | 5.23 | 3.22 | 4.46 | 8.6 |  |
| C=C1C(=O)O[C@@H]2C[C@@H](C)[C@@H]3C=CC(=O)[C@@]3(C)[C@@H](OC(=O)CCCC(=O)O[C@H]3[C@@H]4C(=C)C(=O)O[C@@H]4C[C@@H](C)[C@@H]4C=CC(=O)[C@]43C)[C@H]12 | 1.45 | 0.0432 | 0.275 | 0.0295 | 0.104 | 0.0938 | 6.09 | 0.293 |  |  |  |  |  |  |  |  |  |  | 0.079 |  |
| C=C(c1ccccc1)c1cc2c(=O)[nH]ccc2n1C | > 100 | > 100 | > 100 | > 100 | 61.3 | > 100 | > 100 | 71.1 |  |  |  |  |  |  |  |  |  |  |  |  |
| O=C(Cc1nc2ccccc2s1)C(=O)Nc1cccc(C(F)(F)F)c1 | > 100 | > 100 | > 100 | > 100 | > 100 | > 100 | > 100 | > 100 | > 100 |  |  |  |  |  |  |  |  |  |  |  |
| CCNc1ccc2c(c1)C(=O)N(OS(C)(=O)=O)C2=O | > 100 | > 100 | > 100 | > 100 | > 100 | > 100 | > 100 | > 100 |  |  |  |  |  |  |  |  |  |  | > 100 |  |
| CCCCS(=O)(=O)c1cc(Nc2ccc(O)c3c2C(=O)c2ccccc2C3=O)ccc1C | > 100 | > 100 |  | > 100 | > 100 | > 100 | > 100 |  |  | > 100 | > 100 |  | > 100 | > 100 | > 100 | 1.88 |  | 1.68 | > 100 |  |
| O=C(O)C1CC2C=CCC(C2)C1 (stereo not given) | > 100 | > 100 | > 100 | > 100 | > 100 |  | > 100 | > 100 | > 100 |  |  |  |  |  |  |  |  |  |  |  |
| C/C(=C\c1ccccc1)C(=O)c1c(C)cc(C)cc1C | > 100 | > 100 | > 100 | > 100 | > 100 | > 100 | > 100 | > 100 | > 100 |  |  |  |  |  |  |  |  |  |  |  |
| Cn1cnnc1Sc1c([N+](=O)[O-])nc(-c2ccc([N+](=O)[O-])cc2)n1C | 33.7 | 31.3 | 30.8 | 33 | 34.9 | 29.6 | > 100 | 30.8 | 35.5 |  |  |  |  |  |  |  |  |  |  |  |
| Cc1nc(Nc2ccc(Cl)cc2)sc1C(=O)Nc1cccc2c(=O)[nH][nH]c(=O)c12 | 79.5 | > 100 | 40.4 | > 100 | 38.8 | > 100 | > 100 | 45.2 | 64.8 |  |  |  |  |  |  |  |  |  |  |  |
| COc1cc(N)c(Cl)cc1C(=O)N[C@@H]1CCN(CCCOc2ccc(F)cc2)C[C@@H]1OC |  | > 100 | > 100 | > 100 |  | > 100 | > 100 | > 100 | 50.4 |  | > 100 | > 100 | > 100 |  | > 100 | > 100 | 17.8 | 60.2 | > 100 | 13.6 |
| Nc1ccc(C(=O)N/C(=C\c2ccc3c(c2)OCO3)c2nc3ccccc3s2)cc1 | 7.28 | 23.6 | 30.8 | 28.9 | 24.7 | 25.6 | 31 | 29.2 | 53.4 |  |  |  |  |  |  |  |  |  |  |  |
| COc1ccccc1/C=C(\NC(=O)c1ccccc1)c1nc2ccccc2[nH]1 | > 100 | > 100 | > 100 | > 100 | 72.5 | > 100 | > 100 | 48 |  |  |  |  |  |  |  |  |  |  |  |  |
| NCCOCCOCC(=O)O |  | > 100 | > 100 | > 100 | > 100 | > 100 | > 100 | > 100 | > 100 |  |  |  |  |  |  |  |  |  |  |  |
| COc1cccc(C=NC23CC4CC(CC(C4)C2)C3)c1 | > 100 | > 100 | > 100 | > 100 | > 100 | > 100 | > 100 | > 100 | > 100 |  |  |  |  |  |  |  |  |  |  |  |
